{"source": "paper PMC5760531", "about": "“Action Potential Recording and Pro-arrhythmia Risk Analysis in Human Ventricular Trabeculae” (Frontiers in Physiology, 2018)", "key": {"[1]": {"system": "human ventricular trabeculae", "experiment": "Action potential recording and pro-arrhythmic score analysis in human ventricular trabeculae (hVT);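 on all read-outs here: sharp microelectrode action potential recordings at 37°C in Tyrode-perfused trabeculae, 4 cumulative concentrations each applied 31 min, values averaged over last 30 APs, vehicle 0.1% DMSO as control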", "conditions": "for EADs incidence / Refractoriness Escape incidence: c1-c4: 2-FOLD; for EADs incidence / Refractoriness Escape incidence / AMAX / APD30 / APD50 / APD90 / Beat Escape / EADs / ERP / Refractoriness Escape / Triangulation: 21-FOLD, 69-OLD, 207-FOLD free ETPC (0.145µM); for AMAX / APD30 / APD50 / APD90 / Beat Escape / EADs / ERP / Refractoriness Escape / Triangulation: average raw data, c2-c5: 2-FOLD"}, "[2]": {"conditions": "human free (unbound) effective therapeutic plasma concentration used to calculate multiples; cited from earlier work"}, "[3]": {"conditions": "initial 3 testing concentrations"}}, "note": "Several values for one entry are separate records, joined by “and”; a condition that tells them apart may be missing. Identical values can stand only once.", "data": [{"smiles": "CC(CC(c1ccccc1)c1ccccc1)NC(C)(C)C", "note": "(stereo not drawn) [TERODILINE, Terodiline]", "values": [{"measurement": "EADs incidence", "setting": "[1]; 1Hz", "result": 0, "unit": "%"}, {"measurement": "Refractoriness Escape incidence", "setting": "[1]; 1Hz", "result": 0, "unit": "%"}, {"measurement": "EADs incidence", "setting": "[1]; 2Hz", "result": 0, "unit": "%"}, {"measurement": "Refractoriness Escape incidence", "setting": "[1]; 2Hz", "result": 0, "unit": "%"}, {"measurement": "STV", "setting": "[1]; 2 Hz, first concentration", "result": 0.9}, {"measurement": "STV", "setting": "[1]; 2 Hz, third concentration", "result": 2.2}, {"measurement": "STV increase", "setting": "[1]; 2 Hz, third versus first concentration", "result": 144, "unit": "%"}, {"measurement": "EAD induction", "setting": "[1]; any testing concentration, 1 and 2 Hz", "result": "did not induce EAD"}, {"measurement": "AMAX", "setting": "[1]; 1Hz", "result": "111 mV and 110 mV and 108 mV and 102 mV"}, {"measurement": "APD30", "setting": "[1]; 1Hz", "result": "151 ms and 142 ms and 126 ms and 113 ms"}, {"measurement": "APD50", "setting": "[1]; 1Hz", "result": "200 ms and 192 ms and 178 ms and 164 ms"}, {"measurement": "APD90", "setting": "[1]; 1Hz", "result": "270 ms and 268 ms and 293 ms"}, {"measurement": "Beat Escape", "setting": "[1]; 1Hz", "result": 1}, {"measurement": "EADs", "setting": "[1]; 1Hz", "result": 0}, {"measurement": "ERP", "setting": "[1]; 1Hz", "result": "0.44 and 0.45 and 0.48 and 0.49"}, {"measurement": "Refractoriness Escape", "setting": "[1]; 1Hz", "result": 0}, {"measurement": "Triangulation", "setting": "[1]; 1Hz", "result": "119 and 126 and 144 and 180"}, {"measurement": "AMAX", "setting": "[1]; 2Hz", "result": "109 mV and 108 mV and 106 mV and 100 mV"}, {"measurement": "APD30", "setting": "[1]; 2Hz", "result": "115 ms and 108 ms and 100 ms and 104 ms"}, {"measurement": "APD50", "setting": "[1]; 2Hz", "result": "157 ms and 150 ms and 140 ms and 151 ms"}, {"measurement": "APD90", "setting": "[1]; 2Hz", "result": "225 ms and 223 ms and 228 ms and 276 ms"}, {"measurement": "Beat Escape", "setting": "[1]; 2Hz", "result": 1}, {"measurement": "EADs", "setting": "[1]; 2Hz", "result": 0}, {"measurement": "ERP", "setting": "[1]; 2Hz", "result": "0.45 and 0.47 and 0.48"}, {"measurement": "Refractoriness Escape", "setting": "[1]; 2Hz", "result": 0}, {"measurement": "Triangulation", "setting": "[1]; 2Hz", "result": "110 and 115 and 128 and 172"}, {"measurement": "effect on amplitude of AP", "setting": "[1]; especially at 30 μM", "result": "decreased the amplitude of AP"}, {"measurement": "change in APD90", "setting": "[1]; [3]", "result": "less than 10%"}, {"measurement": "change in triangulation", "setting": "[1]; [3]", "result": "≥ 20", "unit": "%"}, {"measurement": "Free ETPC", "setting": "[2]", "result": 0.145, "unit": "µM"}]}]}
